Source: patent publication US11339165B2, “Pyrazolopyrimidines having activity against the respiratory syncytial virus (RSV)” (priority 2017, dated 2022)

Experiments:
[1] = in vitro; conditions: human, TOX HELA CC50 (μM)
[2] = test system: rgRSV224 virus; assay: Antiviral activity: rgRSV224 (GFP) replication in HeLa cells; type: cell-based, respiratory syncytial virus (RSV); conditions: human respiratory syncytial virus, HeLa, 72 h, read-out: RSV HELA EC50 (μM), rgRSV224 virus (MOI=1), HeLa cells, GFP expression three days post-virus exposure

| Structure (SMILES) | CC50 at 3 days [1] [µM] | melting point [°C] | EC50 [2] [µM] |
| --- | --- | --- | --- |
| C[C@@H]1c2ccccc2CCN1C(=O)c1cc(-c2ccc(C#N)cc2)n2nc(-c3ccc(N4CC[C@H](C(N)=O)C4)cc3F)cc2n1 [Compound 62, (3S)-1-{4-[7-(4-Cyanophenyl)-5-[(1R)-1-methyl-1,2,3,4-tetrahydroisoquinoline-2-carbonyl]pyrazolo[1,5-a]pyrimidin-2-yl]-3-fluorophenyl}pyrrolidine-3-carboxamide] | > 100 | 173.36 | 0.043 |
| C[C@@H]1c2ccccc2CCN1C(=O)c1cc(C2CC2)n2nc(-c3ccc(N4CC(CC(N)=O)C4)cc3F)cc2n1 [Compound 65, 2-[1-(4-{7-Cyclopropyl-5-[(1R)-1-methyl-1,2,3,4-tetrahydroisoquinoline-2-carbonyl]-pyrazolo[1,5-a]pyrimidin-2-yl}-3-fluorophenyl)azetidin-3-yl]acetamide] | 39.1 | 211.64 | 0.048 |
| CNC(=O)[C@H]1CCN(c2cc(F)c(-c3cc4nc(C(=O)N5CCc6ccccc6[C@H]5C)cc(C5CC5)n4n3)cn2)C1 [Compound 53, (3S)-1-(5-{7-Cyclopropyl-5-[(1R)-1-methyl-1,2,3,4-tetrahydroisoquinoline-2-carbonyl]-pyrazolo[1,5-a]pyrimidin-2-yl}-4-fluoropyridin-2-yl)-N-methylpyrrolidine-3-carboxamide] | > 100 | 228.33 | 0.035 |
| C[C@@H]1c2ccsc2CCN1C(=O)c1cc(C2CC2)n2nc(-c3ccc(N4CC[C@H](CC(N)=O)C4)cc3F)cc2n1 (single isomer, unassigned) [Compound 42, 2-[(3R)-1-(4-{7-Cyclopropyl-5-[(4*R)-4-methyl-4,5,6,7-tetrahydro-thieno[3,2-c]pyridine-5-carbonyl]pyrazolo[1,5-a]pyrimidin-2-yl}-3-fluorophenyl)pyrrolidin-3-yl]acetamide] | 28.9 | 206.84 | 0.025 |
| C[C@@H]1c2ccccc2CCN1C(=O)c1cc(C2CC2)n2nc(-c3ccc(N4CC[C@@H](NS(C)(=O)=O)C4)cc3F)cc2n1 [Compound 11, N-[(3R)-1-(4-{7-Cyclopropyl-5-[(1R)-1-methyl-1,2,3,4-tetrahydroisoquinoline-2-carbonyl]pyrazolo[1,5-a]pyrimidin-2-yl}-3-fluorophenyl)pyrrolidin-3-yl]methane-sulfonamide] | > 100 | 159.35 | 0.044 |
| C[C@@H]1c2ccccc2CCN1C(=O)c1cc(C2CC2)n2nc(-c3ccc(N4CC[C@H](C(N)=O)C4)nc3F)cc2n1 [Compound 49, (3S)-1-(5-{7-Cyclopropyl-5-[(1R)-1-methyl-1,2,3,4-tetrahydroisoquinoline-2-carbonyl]-pyrazolo[1,5-a]pyrimidin-2-yl}-6-fluoropyridin-2-yl)pyrrolidine-3-carboxamide] | 32.3 | 239.19 | 0.024 |
| C[C@@H]1c2ccccc2CCN1C(=O)c1cc(C2CC2)n2nc(-c3ccc(N4CC[C@H](NC(=O)C(F)(F)F)C4)cc3F)cc2n1 [Compound 76, N-[(3S)-1-(4-{7-Cyclopropyl-5-[(1R)-1-methyl-1,2,3,4-tetrahydroisoquinoline-2-carbonyl]pyrazolo[1,5-a]pyrimidin-2-yl}-3-fluorophenyl)pyrrolidin-3-yl]-2,2,2-trifluoroacetamide] | > 100 | 221.2 | 0.246 |
| C[C@@H]1c2ccccc2CCN1C(=O)c1cc(C2CC2)n2nc(-c3ccc(N4CCC5(COC5)C4)cc3F)cc2n1 [Compound 5, (1R)-2-[7-Cyclopropyl-2-(2-fluoro-4-{2-oxa-6-azaspiro[3.4]octan-6-yl}phenyl)pyrazolo[1,5-a]pyrimidine-5-carbonyl]-1-methyl-1,2,3,4-tetrahydroisoquinoline] | > 25 | 220.25 | 0.118 |
| C[C@@H]1c2ccccc2CCN1C(=O)c1cc(C2CC2)n2nc(-c3ccc(N4CCC(O)CC4)cc3F)cc2n1 [Compound 74, 1-(4-{7-Cyclopropyl-5-[(1R)-1-methyl-1,2,3,4-tetrahydroisoquinoline-2-carbonyl]-pyrazolo[1,5-a]pyrimidin-2-yl}-3-fluorophenyl)piperidin-4-ol] | 48.1 | 144.01 | 0.076 |
| C[C@@H]1c2ccsc2CCN1C(=O)c1cc(C2CC2)n2nc(-c3ccc(N4CC[C@H](C(N)=O)C4)cc3F)cc2n1 (single isomer, unassigned) [Compound 46, (3S)-1-(4-{7-Cyclopropyl-5-[(4*R)-4-methyl-4,5,6,7-tetrahydro-thieno[3,2-c]pyridine-5-carbonyl]pyrazolo[1,5-a]pyrimidin-2-yl}-3-fluorophenyl)pyrrolidine-3-carboxamide] | 31.3 | 270 | 0.007 |
| C[C@@H]1c2ccccc2CCN1C(=O)c1cc(C2CC2)n2nc(-c3ccc(N4CC[C@@H](S(C)(=O)=O)C4)cc3F)cc2n1 [Compound 17, (1R)-2-(7-Cyclopropyl-2-{2-fluoro-4-[(3R)-3-methanesulfonylpyrrolidin-1-yl]phenyl}-pyrazolo[1,5-a]pyrimidine-5-carbonyl)-1-methyl-1,2,3,4-tetrahydroisoquinoline] | > 100 | 258.48 | 0.05 |
| COCCOc1cc(N2CC[C@H](C(N)=O)C2)nc(F)c1-c1cc2nc(C(=O)N3CCc4ccccc4[C@H]3C)cc(C3CC3)n2n1 [Compound 87, (3S)-1-(5-{7-Cyclopropyl-5-[(1R)-1-methyl-1,2,3,4-tetrahydroisoquinoline-2-carbonyl]-pyrazolo[1,5-a]pyrimidin-2-yl}-6-fluoro-4-(2-methoxyethoxy)pyridin-2-yl)pyrrolidine-3-carboxamide] | 47.4 | 152.28 | 0.215 |
| C[C@@H]1c2ccsc2CCN1C(=O)c1cc(C2CC2)n2nc(-c3ccc(N4CC[C@@H](CC(N)=O)C4)cc3F)cc2n1 (single isomer, unassigned) [Compound 43, 2-[(3S)-1-(4-{7-Cyclopropyl-5-[(4*R)-4-methyl-4,5,6,7-tetrahydro-thieno[3,2-c]pyridine-5-carbonyl]pyrazolo[1,5-a]pyrimidin-2-yl}-3-fluorophenyl)pyrrolidin-3-yl]acetamide] | 29.8 | 214.36 | 0.017 |
| C[C@@H]1c2ccccc2CCN1C(=O)c1cc(-c2ccccn2)n2nc(-c3ccc(N4CC[C@H](C(N)=O)C4)cc3F)cc2n1 [Compound 84, (3S)-1-(3-Fluoro-4-{5-[(1R)-1-methyl-1,2,3,4-tetrahydroisoquinoline-2-carbonyl]-7-(pyridin-2-yl)pyrazolo[1,5-a]pyrimidin-2-yl}phenyl)pyrrolidine-3-carboxamide] | 19 | 252.18 | 0.006 |
| C[C@@H]1c2ccccc2CCN1C(=O)c1cc(C2CC2)n2nc(-c3ccc(N4CC(O)C4)cc3F)cc2n1 [Compound 67, 1-(4-{7-Cyclopropyl-5-[(1R)-1-methyl-1,2,3,4-tetrahydroisoquinoline-2-carbonyl]-pyrazolo[1,5-a]pyrimidin-2-yl}-3-fluorophenyl)azetidin-3-ol] | 36.5 | 205.81 | 0.03 |
| C[C@@H]1c2ccccc2CCN1C(=O)c1cc(C2CC2)n2nc(-c3ccc(N4CC[C@@H](C(N)=O)[C@@H]4C)cc3F)cc2n1 (single isomer, unassigned) [Compound 82, (2*S,3*R)-1-(4-{7-Cyclopropyl-5-[(1R)-1-methyl-1,2,3,4-tetrahydroisoquinoline-2-carbonyl]pyrazolo[1,5-a]pyrimidin-2-yl}-3-fluorophenyl)-2-methylpyrrolidine-3-carboxamide] | 33.1 | 294.89 | 0.033 |
| C[C@@H]1c2ccccc2CCN1C(=O)c1cc(C2CC2)n2nc(-c3ccc(N4CC[C@@H](C(N)=O)[C@H]4C)cc3F)cc2n1 (single isomer, unassigned) [Compound 80, (2*R,3*R)-1-(4-{7-Cyclopropyl-5-[(1R)-1-methyl-1,2,3,4-tetrahydroisoquinoline-2-carbonyl]pyrazolo[1,5-a]pyrimidin-2-yl}-3-fluorophenyl)-2-methylpyrrolidine-3-carboxamide] | 35.9 | 182.93 | 0.091 |
| C[C@@H]1c2ccccc2CCN1C(=O)c1cc(C2CC2)n2nc(-c3ccc(N4CC[C@H](C(N)=O)[C@@H]4C)cc3F)cc2n1 (single isomer, unassigned) [Compound 83, (2*S,3*S)-1-(4-{7-Cyclopropyl-5-[(1R)-1-methyl-1,2,3,4-tetrahydroisoquinoline-2-carbonyl]pyrazolo[1,5-a]pyrimidin-2-yl}-3-fluorophenyl)-2-methylpyrrolidine-3-carboxamide] | 42.4 | 235.56 | 0.044 |
| C[C@@H]1c2ccccc2CCN1C(=O)c1cc(C2CC2)n2nc(-c3ccc(N4CC[C@H](C(N)=O)[C@H]4C)cc3F)cc2n1 (single isomer, unassigned) [Compound 81, (2*R,3*S)-1-(4-{7-Cyclopropyl-5-[(1R)-1-methyl-1,2,3,4-tetrahydroisoquinoline-2-carbonyl]pyrazolo[1,5-a]pyrimidin-2-yl}-3-fluorophenyl)-2-methylpyrrolidine-3-carboxamide] | 38.4 | 271.19 | 0.099 |
| CNC(=O)CC1CN(c2ccc(-c3cc4nc(C(=O)N5CCc6ccccc6[C@H]5C)cc(C5CC5)n4n3)c(F)c2)C1 [Compound 66, 2-[1-(4-{7-Cyclopropyl-5-[(1R)-1-methyl-1,2,3,4-tetrahydroisoquinoline-2-carbonyl]-pyrazolo[1,5-a]pyrimidin-2-yl}-3-fluorophenyl)azetidin-3-yl]-N-methylacetamide] | 36.4 | 143.13 | 0.04 |
